ChEMBL document CHEMBL1158817, “Hyrtioerectines A-C, cytotoxic alkaloids from the red sea sponge hyrtioserectus” (J Nat Prod, 2005)
In brackets after ≈: the same amount, converted by molar mass.

Each compound was assayed on HeLa (assay: Cytotoxicity against human HeLa cells by Fukuzawa's method).
Assay type: functional, cell-based

Structure (SMILES) | IC50
O=C(O)C(=O)c1c(-c2c[nH]c3cc(O)ccc23)ncc2[nH]c3ccc(O)cc3c12 [HYRTIOERECTINE A] | 10 µg/mL (≈ 25.8 µM)
C[C@H]1N[C@@H](C(=O)O)Cc2c1[nH]c1ccc(O)cc21 [HYRTIOERECTINE B] | 5 µg/mL (≈ 20.3 µM)
O=C(O)[C@H](O)Cc1c[nH]c2ccc(O)cc12 [HYRTIOERECTINE C] | 4.5 µg/mL (≈ 20.3 µM)
